From PubChem BioAssay (NCI)
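Briefly, cells in 96-well plates were exposed to five compound concentrations for 48 h, and endpoints were estimated by linear interpolation. GI50: concentration for 50% inhibition of growth. TGI is the concentration that stops growth completely.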

Columns and labels:
Assay in all cases: inhibition of tumour cell growth, NCI panel, 48 h
[1] = system: HCT-116 colon
[2] = system: M14 melanoma
[3] = system: MDA-MB-435
[4] = system: OVCAR-8 ovarian
[5] = system: PC-3 prostate
[6] = system: SF-268 CNS
[7] = system: SK-MEL-2 melanoma
[8] = system: SNB-75 CNS

| SMILES | TGI [1] [µM] | TGI [2] [µM] | TGI [3] [µM] | TGI [4] [µM] | TGI [5] [µM] | TGI [6] [µM] | TGI [7] [µM] | TGI [8] [µM] | GI50 [1] [µM] | GI50 [2] [µM] | GI50 [3] [µM] | GI50 [4] [µM] | GI50 [5] [µM] | GI50 [6] [µM] | GI50 [7] [µM] | GI50 [8] [µM] |
| --- | --- | --- | --- | --- | --- | --- | --- | --- | --- | --- | --- | --- | --- | --- | --- | --- |
| Brc1cccc(N=NN2CCCC2)c1 | > 100 | > 100 | > 100 | > 100 | > 100 | > 100 | > 100 | > 100 | – | – | – | – | – | – | – | – |
| Clc1ccc(OCc2nnc(CCCCCCCCc3nnc(COc4ccc(Cl)cc4)n3Nc3ccccc3)n2Nc2ccccc2)cc1 | 24.2 | > 38.3 | > 63.4 | > 100 | > 100 | > 100 | 63.5 | > 100 | – | – | – | – | – | – | – | – |
| COc1ccc2cc(NC(=O)N/N=C\c3ccc(Cl)cc3)ccc2c1 | > 100 | > 100 | > 100 | > 100 | > 100 | > 100 | > 100 | > 100 | – | – | – | – | – | – | – | – |
| Cc1cn([C@@H]2C[C@H]2CO)c(=O)[nH]c1=O | > 100 | > 100 | > 100 | > 100 | > 100 | > 100 | > 100 | > 100 | – | – | – | – | – | – | – | – |
| Cc1cc2ncc3c(=O)n(NS(=O)(=O)c4ccc(N)cc4)ccc3n2n1 | > 100 | > 100 | > 100 | > 100 | > 100 | > 100 | > 100 | > 100 | – | – | – | – | – | – | – | – |
| COc1ccc2c(c1)CN1C(=N2)CSC1c1ccccc1Cl (stereo not drawn) | 33.1 | 35.4 | 39.9 | 43.2 | 70.5 | 76.4 | 37.3 | 48.8 | – | – | – | – | – | – | – | – |
| Brc1ccc2c(-c3csc(-c4c[nH]c5ccc(Br)cc45)n3)c[nH]c2c1 | 13.9 | 13.3 | 17.7 | 24.1 | 19.8 | 13.2 | 18.8 | 24.9 | – | – | – | – | – | – | – | – |
| NC(N)=NS(=O)(=O)c1ccc(NC(=O)c2ccc3nc4ccccc4c(Nc4ccc(S(=O)(=O)N=C(N)N)cc4)c3c2)cc1 | > 100 | > 100 | > 100 | > 100 | > 100 | > 100 | > 100 | > 100 | – | – | – | – | – | – | – | – |
| N#Cc1c(-c2ccc(F)cc2)nc(N/N=C/c2c[nH]c3ccccc23)nc1N1CCOCC1 | 17.9 | 4.87 | 74.9 | 93.8 | > 100 | > 100 | 17.7 | 38.4 | 2.17 | 2.1 | 9.26 | 7.63 | 3.54 | 17 | 3.5 | 3.45 |
| c1ccc2c3c(c(N4CCOCC4)nc2c1)CCCC3 | > 100 | > 100 | > 100 | > 100 | > 100 | > 100 | > 100 | 83.1 | – | – | – | – | – | – | – | – |
| O=C1C=CC(=O)c2c(O)c(NCCc3ccc(O)cc3)c(Cl)c(O)c21 | > 10 | > 10 | > 10 | > 10 | > 10 | > 10 | > 10 | > 10 | – | – | – | – | – | – | – | – |
| NC1CNC(=O)c2c(Cl)sc(Cl)c21 (stereo not drawn) | > 100 | > 100 | > 100 | > 100 | > 100 | > 100 | > 100 | > 100 | – | – | – | – | – | – | – | – |
| Nc1ccc(S(=O)(=O)Nc2nc3ccccc3nc2N2CCCCC2)cc1 | > 100 | > 100 | > 100 | > 100 | > 100 | > 100 | > 100 | > 100 | – | – | – | – | – | – | – | – |
| NC(=O)c1cc2ccccc2o/c1=N/O | > 100 | > 100 | > 100 | > 100 | > 100 | > 100 | > 100 | > 100 | – | – | – | – | – | – | – | – |
| COc1cc(CN2CCCCC2)cc2cc(C(=O)O)c(=O)oc12 | > 100 | > 100 | > 100 | > 100 | > 100 | > 100 | > 100 | > 100 | – | – | – | – | – | – | – | – |
| CC(C)(C)c1cc(/C=C(\C#N)C(=O)NCCO)cc(C(C)(C)C)c1O | 32.7 | 31.8 | 45 | > 100 | 46.7 | > 100 | 37.4 | 72.4 | – | – | – | – | – | – | – | – |
| CC1(C)C=C(S(=O)(=O)c2ccccc2)Oc2ccccc2O1 | > 100 | > 100 | 48 | > 100 | > 100 | > 100 | > 100 | 82.3 | – | – | – | – | – | – | – | – |
| C=C1C(=O)O[C@@]23C1CC[C@@H](C)C2CC[C@@]1(C)OC31 (stereo partly drawn) | 21.3 | 12.9 | 23 | 56.5 | 18.7 | 34.3 | 23.9 | 8.52 | – | – | – | – | – | – | – | – |
| O=C1CSC(c2cccs2)N1c1nc2cc3sc(N4C(=O)CSC4c4cccs4)nc3cc2s1 (stereo not drawn) | > 50 | > 50 | > 50 | > 50 | > 50 | > 50 | > 50 | > 50 | – | – | – | – | – | – | – | – |
| COc1c(C)c2nc3ccccc3[nH]c2c2c(=O)ccnc12 | > 100 | > 100 | > 100 | > 100 | > 100 | > 100 | > 100 | 35.1 | – | – | – | – | – | – | – | – |
